# Species: Rattus norvegicus
# Assay: DrugMatrix - Regimen: Daily Repeat
# Assay type: toxicity, organism-based, Sprague-Dawley
# Design: regimen Daily Repeat, gender Male, age 6-8 weeks
# Conditions: in vivo, po, route oral GAVAGE, vehicle .5 % CMC; for ABSOLUTE BASOPHIL / ABSOLUTE EOSINOPHIL / ABSOLUTE LYMPHOCYTE / ABSOLUTE MONOCYTE / ABSOLUTE SEGMENTED NEUTROPHIL / BASOPHIL / EOSINOPHIL / ERYTHROCYTE COUNT / HEMATOCRIT / HEMOGLOBIN / LEUKOCYTE COUNT / LYMPHOCYTE / MEAN CORPUSCULAR HEMOGLOBIN / MEAN CORPUSCULAR HEMOGLOBIN CONCENTRATION / MEAN CORPUSCULAR VOLUME / MONOCYTE / NEUTROPHIL / NUCLEATED RED BLOOD CELLS / PLATELET COUNT: tissue Blood; for ALANINE AMINOTRANSFERASE / ALBUMIN / ALKALINE PHOSPHATASE / ASPARTATE AMINOTRANSFERASE / BLOOD UREA NITROGEN / CARBON DIOXIDE / CHLORIDE / CHOLESTEROL / CREATINE PHOSPHOKINASE / CREATININE / GLUCOSE / LACTATE DEHYDROGENASE / LIPASE / PHOSPHORUS / POTASSIUM / SODIUM / TOTAL BILIRUBIN / TOTAL PROTEIN / URIC ACID: tissue Plasma
# [1] = 0 mg/kg, 72 h, dose level Control, time 3 day
# [2] = 0 mg/kg, 120 h, dose level Control, time 5 day
# [3] = 150 mg/kg, 72 h, dose level Low, time 3 day
smiles,measurement,setting,value
C[C@]1(Cn2ccnn2)[C@H](C(=O)O)N2C(=O)C[C@H]2S1(=O)=O [TAZOBACTAM],ABSOLUTE BASOPHIL,[1],0 CELLS/uL
same,ABSOLUTE EOSINOPHIL,[1],222.83 CELLS/uL
same,ABSOLUTE LYMPHOCYTE,[1],14453 CELLS/uL
same,ABSOLUTE MONOCYTE,[1],0 CELLS/uL
same,ABSOLUTE SEGMENTED NEUTROPHIL,[1],1490.83 CELLS/uL
same,BASOPHIL,[1],0%
same,EOSINOPHIL,[1],1.33%
same,ERYTHROCYTE COUNT,[1],5.76 x10E6/uL
same,HEMATOCRIT,[1],36.52%
same,HEMOGLOBIN,[1],13.45 G/DL
same,LEUKOCYTE COUNT,[1],16.17 x10E3/uL
same,LYMPHOCYTE,[1],89.33%
same,MEAN CORPUSCULAR HEMOGLOBIN,[1],23.37 pg
same,MEAN CORPUSCULAR HEMOGLOBIN CONCENTRATION,[1],36.85 G/DL
same,MEAN CORPUSCULAR VOLUME,[1],63.47 fL
same,MONOCYTE,[1],0%
same,NEUTROPHIL,[1],9.33%
same,NUCLEATED RED BLOOD CELLS,[1],0 /100WBC
same,PLATELET COUNT,[1],1239.5 x10E3/uL
same,ALANINE AMINOTRANSFERASE,[1],43.83 u/L
same,ALBUMIN,[1],4.27 G/DL
same,ALKALINE PHOSPHATASE,[1],398.83 u/L
same,ASPARTATE AMINOTRANSFERASE,[1],81.17 u/L
same,BLOOD UREA NITROGEN,[1],17.67 mg/dL
same,CARBON DIOXIDE,[1],27.5 mmol/L
same,CHLORIDE,[1],99.17 MEQ/L
same,CHOLESTEROL,[1],74 mg/dL
same,CREATINE PHOSPHOKINASE,[1],331.5 u/L
same,CREATININE,[1],0.2 mg/dL
same,GLUCOSE,[1],171.33 mg/dL
same,LACTATE DEHYDROGENASE,[1],241.67 u/L
same,LIPASE,[1],9.5 u/L
same,PHOSPHORUS,[1],12.25 mg/dL
same,POTASSIUM,[1],6.33 MEQ/L
same,SODIUM,[1],141.28 MEQ/L
same,TOTAL BILIRUBIN,[1],0.15 mg/dL
same,TOTAL PROTEIN,[1],5.98 G/DL
same,URIC ACID,[1],1.63 mg/dL
same,ABSOLUTE BASOPHIL,[2],0 CELLS/uL
same,ABSOLUTE EOSINOPHIL,[2],148.67 CELLS/uL
same,ABSOLUTE LYMPHOCYTE,[2],16020.5 CELLS/uL
same,ABSOLUTE MONOCYTE,[2],29.17 CELLS/uL
same,ABSOLUTE SEGMENTED NEUTROPHIL,[2],1468.33 CELLS/uL
same,BASOPHIL,[2],0%
same,EOSINOPHIL,[2],1%
same,ERYTHROCYTE COUNT,[2],5.78 x10E6/uL
same,HEMATOCRIT,[2],35.77%
same,HEMOGLOBIN,[2],13.4 G/DL
same,LEUKOCYTE COUNT,[2],17.67 x10E3/uL
same,LYMPHOCYTE,[2],90.5%
same,MEAN CORPUSCULAR HEMOGLOBIN,[2],23.22 pg
same,MEAN CORPUSCULAR HEMOGLOBIN CONCENTRATION,[2],37.47 G/DL
same,MEAN CORPUSCULAR VOLUME,[2],61.92 fL
same,MONOCYTE,[2],0.17%
same,NEUTROPHIL,[2],8.33%
same,NUCLEATED RED BLOOD CELLS,[2],0.17 /100WBC
same,PLATELET COUNT,[2],1255.5 x10E3/uL
same,ALANINE AMINOTRANSFERASE,[2],46.5 u/L
same,ALBUMIN,[2],4.38 G/DL
same,ALKALINE PHOSPHATASE,[2],336 u/L
same,ASPARTATE AMINOTRANSFERASE,[2],76.5 u/L
same,BLOOD UREA NITROGEN,[2],20 mg/dL
same,CARBON DIOXIDE,[2],27.5 mmol/L
same,CHLORIDE,[2],101 MEQ/L
same,CHOLESTEROL,[2],71.33 mg/dL
same,CREATINE PHOSPHOKINASE,[2],231.83 u/L
same,CREATININE,[2],0.37 mg/dL
same,GLUCOSE,[2],168.83 mg/dL
same,LACTATE DEHYDROGENASE,[2],174 u/L
same,LIPASE,[2],8.67 u/L
same,PHOSPHORUS,[2],11.48 mg/dL
same,POTASSIUM,[2],6.82 MEQ/L
same,SODIUM,[2],143.8 MEQ/L
same,TOTAL BILIRUBIN,[2],0.2 mg/dL
same,TOTAL PROTEIN,[2],5.98 G/DL
same,URIC ACID,[2],1.83 mg/dL
same,ABSOLUTE BASOPHIL,[3],0 CELLS/uL
same,ABSOLUTE EOSINOPHIL,[3],82.67 CELLS/uL
same,ABSOLUTE LYMPHOCYTE,[3],6416 CELLS/uL
same,ABSOLUTE MONOCYTE,[3],0 CELLS/uL
same,ABSOLUTE SEGMENTED NEUTROPHIL,[3],534.67 CELLS/uL
same,BASOPHIL,[3],0%
same,EOSINOPHIL,[3],1%
same,ERYTHROCYTE COUNT,[3],5.07 x10E6/uL
same,HEMATOCRIT,[3],32.53%
same,HEMOGLOBIN,[3],12.5 G/DL
same,LEUKOCYTE COUNT,[3],7.03 x10E3/uL
same,LYMPHOCYTE,[3],91.67%
same,MEAN CORPUSCULAR HEMOGLOBIN,[3],24.63 pg
same,MEAN CORPUSCULAR HEMOGLOBIN CONCENTRATION,[3],38.43 G/DL
same,MEAN CORPUSCULAR VOLUME,[3],64.17 fL
same,MONOCYTE,[3],0%
same,NEUTROPHIL,[3],7.33%
same,NUCLEATED RED BLOOD CELLS,[3],0 /100WBC
same,PLATELET COUNT,[3],1184.33 x10E3/uL
same,ALANINE AMINOTRANSFERASE,[3],52.67 u/L
same,ALBUMIN,[3],4.23 G/DL
same,ALKALINE PHOSPHATASE,[3],410.33 u/L
same,ASPARTATE AMINOTRANSFERASE,[3],79.67 u/L
same,BLOOD UREA NITROGEN,[3],16.67 mg/dL
same,CARBON DIOXIDE,[3],24.33 mmol/L
same,CHLORIDE,[3],104 MEQ/L
same,CHOLESTEROL,[3],78 mg/dL
same,CREATINE PHOSPHOKINASE,[3],280.33 u/L
same,CREATININE,[3],0.2 mg/dL
same,GLUCOSE,[3],152.33 mg/dL
same,LACTATE DEHYDROGENASE,[3],134.33 u/L
same,LIPASE,[3],8 u/L
same,PHOSPHORUS,[3],11.47 mg/dL
same,POTASSIUM,[3],6.02 MEQ/L
same,SODIUM,[3],144.87 MEQ/L
same,TOTAL BILIRUBIN,[3],0.2 mg/dL
same,TOTAL PROTEIN,[3],5.9 G/DL
same,URIC ACID,[3],1.03 mg/dL

# Source: ChEMBL document CHEMBL3885881, “DrugMatrix”
